Laboratory results: patent publication US4701448A, “Metal salt of organic phosphate and an antihyperlipemic agent containing the same” (Asahi Denka Kogyo Kabushiki Kaisha, priority 1985, dated 1987)
Like-named read-outs stand apart in the source and are kept apart here.

Legend:
serum cholesterol = assay: Serum cholesterol lowering activity, oral, rabbit, 5 successive days; format: in vivo; details: two times a day, 5 days
Protocol: (1) Serum cholesterol lowering activity the metal salt of organic phosphate according to the present invention was orally administered to a rabbit (body weight of about 3 Kg) two times a day (at 9:00 a.m. and 4:00 p.m.) for 5 successive days. After 5 days, blood was sampled and the total cholesterol value in serum was measured in a conventional manner.

rat = assay: Acute toxicity, rat; format: in vivo
Source text: (§1) The acute toxicity of the metal salt of CB3A and of CK3A was examined by orally or peritoneally administrating an aqueous solution or dispersion thereof the results are shown in Table 2.
(§2) a . . . per os (oral administration)
(§3) b . . . intraperitoneal injection

synthesis of cholesterol = details: in words; Japanese Patent Application No. 165490/1983, J. Antibiotics 38, 328-332 (1985); cited from earlier work
mouse = assay: Acute toxicity, mouse; format: in vivo
Source text: as §1, §2, §3

[1] = Water solubility, hygroscopic property and stability (statements in words); format: physicochemical; details: listed as CB3K
[2] = Stability, 5 weeks at 45° C. and humidity of 80% (HPLC remaining rate); format: physicochemical; details: after 5 weeks, humidity of 80%, 50400 min
Protocol: One gram each of CB3A, CK3A and various metal salts thereof was placed in a beaker and the beaker was allowed to stand for 5 weeks in a constant temperature and humidity bath controlled at a temperature of 45° C. and a humidity of 80%. After 5 weeks, a remaining rate of the compound was analyzed quantitatively with a high performance liquid chromatography "Tri rotar" manufactured by Nippon Bunko K. K. (Japan).
A0 = initial amount of the compound prior to standing in the constan
temperature and humidity bath
A1 = final amount of the compound after 5 weeks

[3] = Absorbability and effect (statement in words)
Acidity (pKa) of CB3A = format: physicochemical

## CCC(C)C(=O)OC1CCC=C2C=CC(C)C(CCC(CC(O)CC(=O)O)OP(=O)(O)O)C21 (stereo not shown) [CB3A, reference compound]
Serum cholesterol; 1.5 mg/kg/day
  Total Serum cholesterol lowering rate: 9.4%
Serum cholesterol; 6 mg/kg/day
  Total Serum cholesterol lowering rate: 23.9%
rat; intraperitoneal injection
  LD50: > 500 mg/kg
rat; per os (oral administration)
  LD50: > 2000 mg/kg
Synthesis of cholesterol
  activity of inhibiting the synthesis of cholesterol: strong activity of inhibiting the synthesis of cholesterol
mouse; intraperitoneal injection
  LD50: > 500 mg/kg
mouse; per os (oral administration)
  LD50: > 2000 mg/kg
[1]
  stability: unstable
[2]
  Remaining rate: 14%
[3]
  absorbability and effect: unsatisfactory
Acidity (pKa) of CB3A; carboxylic acid group in CB3A molecule, read-out: pKa3
  pKa: 7.1
Acidity (pKa) of CB3A; phosphoric acid group in CB3A molecule, read-out: pKa1
  pKa: 2.2
Acidity (pKa) of CB3A; phosphoric acid group in CB3A molecule, read-out: pKa2
  pKa: 5
